Results from publication PMC7037548, “Microbial Transformation of Prenylquercetins by Mucor hiemalis” (Molecules, 2020).
In brackets after ≈: the same amount, converted by molar mass.

Experiment: Water solubility test
Assay type: physicochemical
Conditions: for solubility at 10 min: water, thermodynamic from solid
Protocol: The solubility of prenylquercetins and their glucosides were determined based on the previously reported method with some modifications. Briefly, each compound (4 mg) was dissolved in 1 mL of distilled water at room temperature followed by sonication for 10 min and centrifugation at 3600 rpm for 5 min at room temperature. Then the concentrations of the compounds in the supernatant were measured based on their peak areas utilizing calibration curves determined by the HPLC of authentic samples.

| solubility at 10 min | Water solubility, comparison in words | Structure (SMILES) | Solubility (water solubility) (distilled water, room temperature, 4 mg in 1 mL, sonication 10 min, centrifugation, supernatant by HPLC) |
| --- | --- | --- | --- |
| 13 µg/mL (≈ 35.1 µM) | – | CC(C)=CCc1c(O)cc(O)c2c(=O)c(O)c(-c3ccc(O)c(O)c3)oc12 [Compound 1, 8-prenylquercetin] | – |
| 63 µg/mL (≈ 170 µM) | – | CC(C)=CCc1cc(O)c(O)cc1-c1oc2cc(O)cc(O)c2c(=O)c1O [Compound 2, 6′-prenylquercetin] | – |
| 20 µg/mL (≈ 45.6 µM) | – | CC(C)=CCc1cc(O)c(O)cc1-c1oc2c(CC=C(C)C)c(O)cc(O)c2c(=O)c1O [Compound 3, 8,6′-diprenylquercetin] | – |
| 501 µg/mL (≈ 941 µM) | – | CC(C)=CCc1c(O[C@@H]2O[C@H](CO)[C@@H](O)[C@H](O)[C@H]2O)cc(O)c2c(=O)c(O)c(-c3ccc(O)c(O)c3)oc12 [Compound 4, 8-Prenylquercetin 7-O-β-D-glucopyranoside] | – |
| 385 µg/mL (≈ 723 µM) | – | CC(C)=CCc1c(O)cc(O)c2c(=O)c(O[C@@H]3O[C@H](CO)[C@@H](O)[C@H](O)[C@H]3O)c(-c3ccc(O)c(O)c3)oc12 [Compound 5, 8-Prenylquercetin 3-O-β-D-glucopyranoside] | – |
| 1980 µg/mL (≈ 3710 µM) | – | CC(C)=CCc1cc(O)c(O)cc1-c1oc2cc(O[C@@H]3O[C@H](CO)[C@@H](O)[C@H](O)[C@H]3O)cc(O)c2c(=O)c1O [Compound 6, 6′-Prenylquercetin 7-O-β-D-glucopyranoside] | – |
| 3640 µg/mL (≈ 6830 µM) | – | CC(C)=CCc1cc(O[C@@H]2O[C@H](CO)[C@@H](O)[C@H](O)[C@H]2O)c(O)cc1-c1oc2cc(O)cc(O)c2c(=O)c1O [Compound 7, 6′-Prenylquercetin 4′-O-β-D-glucopyranoside] | – |
| > 4000 µg/mL | higher solubility than metabolite 9 | CC(C)=CCc1cc(O[C@@H]2O[C@H](CO)[C@@H](O)[C@H](O)[C@H]2O)c(O)cc1-c1oc2c(CC=C(C)C)c(O[C@@H]3O[C@H](CO)[C@@H](O)[C@H](O)[C@H]3O)cc(O)c2c(=O)c1O [Compound 8, 8,6′-Diprenylquercetin 7,4′-O-β-D-diglucopyranoside] | – |
| 613 µg/mL (≈ 1020 µM) | – | CC(C)=CCc1cc(O)c(O)cc1-c1oc2c(CC=C(C)C)c(O[C@@H]3O[C@H](CO)[C@@H](O)[C@H](O)[C@H]3O)cc(O)c2c(=O)c1O [Compound 9, 8,6′-Diprenylquercetin 7-O-β-D-glucopyranoside] | – |
| – | – | O=c1c(O)c(-c2ccc(O)c(O)c2)oc2cc(O)cc(O)c12 [Quercetin] | 36 µg/mL (≈ 119 µM) |
